Experimental data published in PMC5571211 (Scientific Reports, 2017).

Legend:
purified ovine COX-1 = molecular target: T1, purified ovine COX-1 (Ovis aries, UniProt P05979); experiment: COX-1 activity, cell-free (12-HHT formation); type: biochemical; conditions: 10 µM
T1 construct: purchased Cayman Chemical (Biomol, Hamburg, Germany)
T1 sequence (P05979 25-600): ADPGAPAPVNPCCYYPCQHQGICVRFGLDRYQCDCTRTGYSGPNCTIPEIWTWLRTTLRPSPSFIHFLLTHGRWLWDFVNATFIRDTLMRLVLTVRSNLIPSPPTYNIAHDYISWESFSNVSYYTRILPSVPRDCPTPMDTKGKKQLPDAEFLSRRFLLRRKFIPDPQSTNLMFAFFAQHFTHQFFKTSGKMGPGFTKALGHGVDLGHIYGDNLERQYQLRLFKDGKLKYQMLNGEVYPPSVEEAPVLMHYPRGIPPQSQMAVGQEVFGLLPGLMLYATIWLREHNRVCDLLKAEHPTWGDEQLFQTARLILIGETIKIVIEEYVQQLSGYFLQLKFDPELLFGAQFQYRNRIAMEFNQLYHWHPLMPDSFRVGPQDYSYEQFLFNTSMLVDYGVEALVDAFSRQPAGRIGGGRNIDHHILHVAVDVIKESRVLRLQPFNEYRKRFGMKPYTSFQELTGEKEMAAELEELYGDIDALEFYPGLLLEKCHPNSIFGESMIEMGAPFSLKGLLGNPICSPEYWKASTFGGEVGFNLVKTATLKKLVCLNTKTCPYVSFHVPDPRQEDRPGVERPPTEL
Procedure: COX activity was assayed by using purified ovine COX-1 and recombinant human COX-2, respectively. Enzymes were diluted in Tris buffer (100 mM, pH 8) supplemented with glutathione (5 mM), EDTA (100 µM) and hemoglobin (5 µM) to a final concentration of 50 U/mL (COX-1) or 20 U/mL (COX-2) and pre-incubated with test compounds or vehicle (0.1% DMSO) for 5 min at RT. After 30 sec at 37 °C, reactions were started with 5 µM AA (COX-1) or 2 µM AA (COX-2) and stopped after 5 min at 37 °C by addition of one volume of ice-cold methanol. Solid phase extraction was performed as described above after addition of 200 ng of internal PGB1 standard and COX product formation was determined by analysis of 12-HHT formation as reported before.

human recombinant 5-LOX = molecular target: T2, human recombinant 5-LOX (Homo sapiens, UniProt P09917); experiment: Activity assay of isolated human recombinant 5-LOX (cell-free); type: biochemical; conditions: cell-free assays, not further specified
T2 construct: made in house; host or cells: E. coli BL21
T2 sequence (P09917 1-674): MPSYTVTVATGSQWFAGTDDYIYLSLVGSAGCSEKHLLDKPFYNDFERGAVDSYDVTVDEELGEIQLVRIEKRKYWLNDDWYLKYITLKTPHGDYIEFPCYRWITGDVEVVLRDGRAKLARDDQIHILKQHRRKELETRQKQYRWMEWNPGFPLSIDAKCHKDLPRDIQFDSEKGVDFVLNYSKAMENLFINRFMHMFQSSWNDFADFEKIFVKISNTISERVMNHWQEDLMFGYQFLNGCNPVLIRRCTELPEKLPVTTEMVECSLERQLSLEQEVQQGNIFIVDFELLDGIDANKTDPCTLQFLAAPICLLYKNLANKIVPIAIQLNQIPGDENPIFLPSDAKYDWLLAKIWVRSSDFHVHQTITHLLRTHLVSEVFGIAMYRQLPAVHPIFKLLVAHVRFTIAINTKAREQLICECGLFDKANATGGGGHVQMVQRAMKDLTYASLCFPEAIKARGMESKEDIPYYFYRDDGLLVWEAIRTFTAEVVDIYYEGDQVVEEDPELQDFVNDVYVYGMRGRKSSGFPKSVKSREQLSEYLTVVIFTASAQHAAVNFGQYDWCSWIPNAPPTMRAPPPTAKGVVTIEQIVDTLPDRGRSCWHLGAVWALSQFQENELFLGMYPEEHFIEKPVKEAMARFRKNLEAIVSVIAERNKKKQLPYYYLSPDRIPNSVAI
Procedure: To determine 5-LOX product formation, aliquots (0.5 µg purified 5-LOX in 1 mL PBS plus 1 mM EDTA) were pre-incubated with the test compounds or vehicle (0.1% DMSO) on ice for 15 min and then stimulated with 20 µM AA and CaCl2 (2 mM) for 10 min at 37 °C. The reaction was stopped with one volume of ice-cold methanol and 5-LOX products were analyzed by RP-HPLC as previously described[58]. Briefly, 530 µl acidified PBS and 200 ng of internal PGB1 standard were added and solid phase extraction using C18 RP-columns (100 mg, UCT, Bristol, PA, USA) was performed. After elution with methanol, samples were analyzed by RP-HPLC using a C-18 Radial-PAK column (Waters, Eschborn, Germany). Unless stated otherwise, 5-LOX products include all-trans-isomers of LTB4 and 5-HpETE as well as its corresponding alcohol 5-HETE.

5-LOX/FLAP complex = molecular target: T3, 5-LOX/FLAP complex (Homo sapiens, UniProt P20292); experiment: Proximity ligation assay of 5-LOX/FLAP complex assembly in monocytes; type: cell-based; conditions: diflapolin 1 µM, MK886 0.3 µM, zileuton 3 µM
T3 construct: endogenous in cells; host or cells: freshly isolated human monocytes (immunofluorescence also in neutrophils)
T3 sequence (P20292 1-161): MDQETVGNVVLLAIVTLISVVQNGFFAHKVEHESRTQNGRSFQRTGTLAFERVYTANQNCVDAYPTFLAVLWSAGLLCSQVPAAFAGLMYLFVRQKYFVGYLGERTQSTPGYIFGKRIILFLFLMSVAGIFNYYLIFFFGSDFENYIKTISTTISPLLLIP
Procedure: In situ protein interaction of 5-LOX and FLAP was analyzed by proximity ligation assay as described before[37] and referring to the manufacturer’s protocol. In brief, freshly isolated monocytes were treated as described for IF above. Overnight incubations with primary antibodies were then treated for 1 h (37 °C) with oligonucleotide-labeled specific secondary antibodies (PLA probes anti-mouse MINUS and anti-rabbit PLUS). Formation of circled DNA sequences was induced by addition of ligase and oligonucleotide mixture (30 min at 37 °C). Rolling-circle-amplification of newly generated DNA template was performed (90 min, 37 °C) including hybridization of fluorescently-labeled oligonucleotides within the formed DNA strands, resulting in visualization of protein-protein interactions recognized as magenta-stained dots. Nuclear DNA staining with DAPI and image acquisition was performed as described above. Overview images were obtained using a Plan Neofluar 40/1.30 Oil (DIC III) objective (Carl Zeiss).

[1] = tested on: 5-LOX product formation (FLAP) in human neutrophils; experiment: 5-LOX product formation in intact human neutrophils stimulated with Ca2+-ionophore A23187; type: cell-based; conditions: 5 h, read-out: IC50, formation of LTB4 and its isomers and of 5-H(p)ETE (5-LOX product formation); intact human neutrophils (PMNL), Ca2+-ionophore A23187, no AA supplementation
Procedure: After elution with methanol, samples were analyzed by RP-HPLC using a C-18 Radial-PAK column (Waters, Eschborn, Germany).

IC50 (human recombinant 5-LOX) [nM] | 5-LOX/FLAP complex assembly (PLA) (5-LOX/FLAP complex) | IC50 [1] [nM] | SMILES | inhibition of COX-1 activity (purified ovine COX-1)
– | – | – | Cc1cc(OCc2nc3ccccc3s2)ccc1NC(=O)Nc1ccc(Cl)c(Cl)c1 [diflapolin, N-[4-(benzothiazol-2-ylmethoxy)-2-methylphenyl]-N′-(3,4-dichlorophenyl)urea] | did not significantly inhibit
> 10000 | comparable effects | 10 to 14 | CC(C)c1ccc2c(c1)c(SC(C)(C)C)c(CC(C)(C)C(=O)O)n2Cc1ccc(Cl)cc1 [MK886, 3-[1-(4-chlorobenzyl)-3-t-butyl-thio-5-isopropylindol-2-yl]-2,2 - dimethylpropanoic acid] | –
